This note sets out measurements from patent publication US8765096B2, “Methods and compositions for treating and diagnosing kidney disease” (Endocyte, Inc, priority 2007, dated 2014).

One data set addresses folate receptor (Homo sapiens, UniProt P15328). To be noted: KB cells, 1 hour at 37° C., 100 nM 3H-folic acid, increasing competitor concentrations; folic acid = 1.0.
The test system of another data set is KB cells. Kind of data set: Cell viability in KB cells. To be noted: 2, 10, and 50 nM, at 24 hours.

“Also recorded” adds a separate entry of the source.

folate receptor, sequence (P15328 25-234): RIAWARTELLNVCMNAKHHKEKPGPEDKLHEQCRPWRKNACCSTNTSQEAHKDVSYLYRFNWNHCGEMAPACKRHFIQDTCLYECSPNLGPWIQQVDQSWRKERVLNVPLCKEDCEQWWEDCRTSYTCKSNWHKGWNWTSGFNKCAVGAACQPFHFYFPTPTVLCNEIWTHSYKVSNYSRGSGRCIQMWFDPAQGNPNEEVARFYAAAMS

For `CO[C@H]1C[C@@H]2CC[C@@H](C)[C@@](O)(O2)C(=O)C(=O)N2CCCC[C@H]2C(=O)O[C@H]([C@H](C)C[C@@H]2CC[C@@H](O)[C@H](OC)C2)CC(=O)[C@H](C)/C=C(\C)[C@@H](OC(=O)OCCSSC[C@H](NC(=O)[C@H](CC(=O)O)NC(=O)[C@H](CC(=O)O)NC(=O)[C@H](CCCNC(=N)N)NC(=O)[C@H](CC(=O)O)NC(=O)CC[C@H](NC(=O)c2ccc(NCc3cnc4nc(N)[nH]c(=O)c4n3)cc2)C(=O)O)C(=O)O)[C@@H](OC)C(=O)[C@H](C)C[C@H](C)/C=C/C=C/C=C/1C` [EC0371], on folate receptor, the “relative affinity at the folate receptor” value is on record as 0.5. Further, the “cytotoxicity (cell viability)” value in the data set with KB cells was “Neither rapamycin nor EC0371 is cytotoxic; also recorded: neither rapamycin nor EC0371 was found to be cytotoxic”.
